Source: the NIST ThermoML archive (doi:10.1021/je700062x)
Numbers after ± are expanded uncertainties.

Test: wn = mass fraction of the nth substance listed
Conditions: 101 kPa, Liquid, controlled-strain rheometer (ARES-RFS, TA Instruments)

O=C(CO)[C@@H](O)[C@H](O)[C@H](O)CO [D-fructose] + O
viscosity (263.15 K, w1 = 0.7): 4270 ± 1100 mPa·s
viscosity (268.15 K, w1 = 0.3): 7.97 ± 0.8 mPa·s
viscosity (268.15 K, w1 = 0.4): 18.51 ± 1.9 mPa·s
viscosity (268.15 K, w1 = 0.5): 54.8 ± 5.7 mPa·s
viscosity (268.15 K, w1 = 0.6): 238 ± 27 mPa·s
viscosity (268.15 K, w1 = 0.7): 2446 ± 500 mPa·s
viscosity (273.15 K, w1 = 0.05): 2.345 ± 0.23 mPa·s
viscosity (273.15 K, w1 = 0.1): 2.89 ± 0.33 mPa·s
viscosity (273.15 K, w1 = 0.2): 4.2 ± 0.42 mPa·s
viscosity (273.15 K, w1 = 0.3): 6.39 ± 0.78 mPa·s
viscosity (273.15 K, w1 = 0.4): 14.02 ± 1.4 mPa·s
viscosity (273.15 K, w1 = 0.5): 35.06 ± 3.6 mPa·s
viscosity (273.15 K, w1 = 0.6): 148.7 ± 16 mPa·s
viscosity (273.15 K, w1 = 0.7): 1418 ± 230 mPa·s
viscosity (278.15 K, w1 = 0.05): 1.999 ± 0.2 mPa·s
viscosity (278.15 K, w1 = 0.1): 2.44 ± 0.24 mPa·s
viscosity (278.15 K, w1 = 0.2): 3.39 ± 0.52 mPa·s
viscosity (278.15 K, w1 = 0.3): 5.5 ± 0.55 mPa·s
viscosity (278.15 K, w1 = 0.4): 10.84 ± 1.1 mPa·s
viscosity (278.15 K, w1 = 0.5): 25.27 ± 2.6 mPa·s
viscosity (278.15 K, w1 = 0.6): 103.4 ± 11 mPa·s
viscosity (278.15 K, w1 = 0.7): 843 ± 120 mPa·s
viscosity (283.15 K, w1 = 0.05): 1.681 ± 0.17 mPa·s
viscosity (283.15 K, w1 = 0.1): 1.991 ± 0.2 mPa·s
viscosity (283.15 K, w1 = 0.2): 2.859 ± 0.29 mPa·s
viscosity (283.15 K, w1 = 0.3): 4.45 ± 0.45 mPa·s
viscosity (283.15 K, w1 = 0.4): 8.07 ± 0.81 mPa·s
viscosity (283.15 K, w1 = 0.5): 19.44 ± 2 mPa·s
viscosity (283.15 K, w1 = 0.6): 72 ± 7.5 mPa·s
viscosity (283.15 K, w1 = 0.7): 509.4 ± 63 mPa·s
viscosity (293.15 K, w1 = 0.05): 1.26 ± 0.28 mPa·s
viscosity (293.15 K, w1 = 0.1): 1.43 ± 0.35 mPa·s
viscosity (293.15 K, w1 = 0.2): 2.092 ± 0.21 mPa·s
viscosity (293.15 K, w1 = 0.3): 3.07 ± 0.38 mPa·s
viscosity (293.15 K, w1 = 0.4): 5.67 ± 0.57 mPa·s
viscosity (293.15 K, w1 = 0.5): 14.33 ± 1.4 mPa·s
viscosity (293.15 K, w1 = 0.6): 38.31 ± 3.9 mPa·s
viscosity (293.15 K, w1 = 0.7): 220.7 ± 24 mPa·s

O=C[C@H](O)[C@@H](O)[C@@H](O)[C@H](O)CO [(+)-galactose] + O
viscosity (268.15 K, w1 = 0.3): 8.95 ± 1.3 mPa·s
viscosity (268.15 K, w1 = 0.4): 18.84 ± 1.9 mPa·s
viscosity (273.15 K, w1 = 0.05): 2.42 ± 0.26 mPa·s
viscosity (273.15 K, w1 = 0.1): 2.779 ± 0.31 mPa·s
viscosity (273.15 K, w1 = 0.15): 3.325 ± 0.33 mPa·s
viscosity (273.15 K, w1 = 0.2): 4.27 ± 0.43 mPa·s
viscosity (273.15 K, w1 = 0.3): 6.93 ± 0.7 mPa·s
viscosity (273.15 K, w1 = 0.4): 14.56 ± 1.5 mPa·s
viscosity (278.15 K, w1 = 0.05): 2.077 ± 0.21 mPa·s
viscosity (278.15 K, w1 = 0.1): 2.4 ± 0.28 mPa·s
viscosity (278.15 K, w1 = 0.15): 2.77 ± 0.28 mPa·s
viscosity (278.15 K, w1 = 0.2): 3.37 ± 0.47 mPa·s
viscosity (278.15 K, w1 = 0.3): 5.34 ± 0.54 mPa·s
viscosity (278.15 K, w1 = 0.4): 11.17 ± 1.1 mPa·s
viscosity (283.15 K, w1 = 0.05): 1.699 ± 0.17 mPa·s
viscosity (283.15 K, w1 = 0.1): 2.107 ± 0.21 mPa·s
viscosity (283.15 K, w1 = 0.15): 2.469 ± 0.25 mPa·s
viscosity (283.15 K, w1 = 0.2): 2.76 ± 0.45 mPa·s
viscosity (283.15 K, w1 = 0.3): 4.57 ± 0.57 mPa·s
viscosity (283.15 K, w1 = 0.4): 9 ± 0.91 mPa·s
viscosity (293.15 K, w1 = 0.05): 1.397 ± 0.22 mPa·s
viscosity (293.15 K, w1 = 0.1): 1.52 ± 0.35 mPa·s
viscosity (293.15 K, w1 = 0.15): 1.77 ± 0.31 mPa·s
viscosity (293.15 K, w1 = 0.2): 2.1 ± 0.24 mPa·s
viscosity (293.15 K, w1 = 0.3): 3.27 ± 0.66 mPa·s
viscosity (293.15 K, w1 = 0.4): 6.11 ± 0.61 mPa·s

OC[C@H]1O[C@@](CO)(O[C@H]2O[C@H](CO)[C@@H](O)[C@H](O)[C@H]2O)[C@@H](O)[C@@H]1O [D-sucrose] + O
viscosity (268.15 K, w1 = 0.4): 25.48 ± 2.6 mPa·s
viscosity (268.15 K, w1 = 0.5): 92.4 ± 11 mPa·s
viscosity (268.15 K, w1 = 0.6): 491.8 ± 50 mPa·s
viscosity (273.15 K, w1 = 0.05): 2.45 ± 0.33 mPa·s
viscosity (273.15 K, w1 = 0.1): 2.978 ± 0.52 mPa·s
viscosity (273.15 K, w1 = 0.2): 4.42 ± 0.45 mPa·s
viscosity (273.15 K, w1 = 0.3): 7.19 ± 0.74 mPa·s
viscosity (273.15 K, w1 = 0.4): 19.81 ± 2 mPa·s
viscosity (273.15 K, w1 = 0.5): 66.8 ± 6.8 mPa·s
viscosity (273.15 K, w1 = 0.6): 316.5 ± 32 mPa·s
viscosity (278.15 K, w1 = 0.05): 1.91 ± 0.45 mPa·s
viscosity (278.15 K, w1 = 0.1): 2.472 ± 0.25 mPa·s
viscosity (278.15 K, w1 = 0.2): 3.48 ± 0.35 mPa·s
viscosity (278.15 K, w1 = 0.3): 5.99 ± 0.6 mPa·s
viscosity (278.15 K, w1 = 0.4): 14.22 ± 1.4 mPa·s
viscosity (278.15 K, w1 = 0.5): 42.93 ± 4.4 mPa·s
viscosity (278.15 K, w1 = 0.6): 228.9 ± 50 mPa·s
viscosity (283.15 K, w1 = 0.05): 1.72 ± 0.38 mPa·s
viscosity (283.15 K, w1 = 0.1): 2.02 ± 0.33 mPa·s
viscosity (283.15 K, w1 = 0.2): 3.01 ± 0.38 mPa·s
viscosity (283.15 K, w1 = 0.3): 5.06 ± 0.51 mPa·s
viscosity (283.15 K, w1 = 0.4): 11.31 ± 1.2 mPa·s
viscosity (283.15 K, w1 = 0.5): 31.33 ± 3.2 mPa·s
viscosity (283.15 K, w1 = 0.6): 153.1 ± 16 mPa·s
viscosity (293.15 K, w1 = 0.05): 1.246 ± 0.19 mPa·s
viscosity (293.15 K, w1 = 0.1): 1.48 ± 0.33 mPa·s
viscosity (293.15 K, w1 = 0.2): 2.38 ± 0.42 mPa·s
viscosity (293.15 K, w1 = 0.3): 3.46 ± 0.4 mPa·s
viscosity (293.15 K, w1 = 0.4): 7.53 ± 0.75 mPa·s
viscosity (293.15 K, w1 = 0.5): 20.09 ± 2 mPa·s
viscosity (293.15 K, w1 = 0.6): 83.9 ± 8.5 mPa·s

O=C[C@H](O)[C@@H](O)[C@H](O)[C@H](O)CO [D-glucose] + O
viscosity (268.15 K, w1 = 0.5): 50.8 ± 5.2 mPa·s
viscosity (273.15 K, w1 = 0.05): 2.39 ± 0.59 mPa·s
viscosity (273.15 K, w1 = 0.1): 2.908 ± 0.31 mPa·s
viscosity (273.15 K, w1 = 0.2): 4.3 ± 0.57 mPa·s
viscosity (273.15 K, w1 = 0.3): 8.17 ± 0.82 mPa·s
viscosity (273.15 K, w1 = 0.4): 15.28 ± 1.5 mPa·s
viscosity (273.15 K, w1 = 0.5): 37.31 ± 3.8 mPa·s
viscosity (278.15 K, w1 = 0.05): 1.98 ± 0.4 mPa·s
viscosity (278.15 K, w1 = 0.1): 2.47 ± 0.41 mPa·s
viscosity (278.15 K, w1 = 0.2): 3.46 ± 0.45 mPa·s
viscosity (278.15 K, w1 = 0.3): 5.94 ± 0.6 mPa·s
viscosity (278.15 K, w1 = 0.4): 11.19 ± 1.9 mPa·s
viscosity (278.15 K, w1 = 0.5): 26.54 ± 2.7 mPa·s
viscosity (283.15 K, w1 = 0.05): 1.76 ± 0.35 mPa·s
viscosity (283.15 K, w1 = 0.1): 2.02 ± 0.33 mPa·s
viscosity (283.15 K, w1 = 0.2): 2.93 ± 0.29 mPa·s
viscosity (283.15 K, w1 = 0.3): 4.83 ± 0.48 mPa·s
viscosity (283.15 K, w1 = 0.4): 9.63 ± 0.97 mPa·s
viscosity (283.15 K, w1 = 0.5): 20.52 ± 2.1 mPa·s
viscosity (293.15 K, w1 = 0.05): 1.36 ± 0.33 mPa·s
viscosity (293.15 K, w1 = 0.1): 1.58 ± 0.42 mPa·s
viscosity (293.15 K, w1 = 0.2): 2.13 ± 0.26 mPa·s
viscosity (293.15 K, w1 = 0.3): 3.46 ± 0.35 mPa·s
viscosity (293.15 K, w1 = 0.4): 6.21 ± 0.62 mPa·s
viscosity (293.15 K, w1 = 0.5): 13.43 ± 1.4 mPa·s
